Our source for the IC50 values is paper PMC9841525, “Chemical Blockage of the Mitochondrial Rhomboid Protease PARL by Novel Ketoamide Inhibitors Reveals Its Role in PINK1/Parkin-Dependent Mitophagy” (Journal of Medicinal Chemistry, 2022).

The assay has as its target T1, PARL (Homo sapiens, UniProt Q9H300).
T1 sequence (Q9H300 53-379): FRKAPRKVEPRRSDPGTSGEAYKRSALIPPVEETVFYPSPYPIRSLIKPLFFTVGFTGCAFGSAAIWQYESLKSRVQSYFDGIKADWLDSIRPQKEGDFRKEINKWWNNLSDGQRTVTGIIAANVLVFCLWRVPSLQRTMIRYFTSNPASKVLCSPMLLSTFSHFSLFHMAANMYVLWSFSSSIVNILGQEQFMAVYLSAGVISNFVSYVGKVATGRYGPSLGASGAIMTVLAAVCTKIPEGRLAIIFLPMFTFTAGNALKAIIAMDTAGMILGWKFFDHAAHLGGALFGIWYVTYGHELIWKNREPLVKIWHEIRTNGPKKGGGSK
In words: CCCP-induced PGAM5-FLAG cleavage by endogenous PARL in HEK293T cells, immunoblot. It counts as cell-based. On the set-up: expressed in transfected cells; host or cells: Flp-In HEK293 T-REx PARL knockout cells. As to conditions: 3 h, mean ± SEM of four experiments, read-out: Apparent IC50, CCCP-induced PGAM5 cleavage. Here is the method:
Inducible stable Flp-In HEK293 T-REx cells expressing PINK1 were described previously.[33] HEK293 T-REx PINK1 and HEK293T cells were grown in DMEM (Gibco) supplemented with 10% (v/v) fetal bovine serum (ThermoFisher), 1% (v/v) GlutaMAX (Gibco), 1% (v/v) sodium pyruvate (Gibco), 125 μg/mL hygromycin (Invitrogen), and 10 μg/mL blasticidin (Gibco) or DMEM supplemented with 10% (v/v) fetal bovine serum, respectively, at 37 °C in 5% (v/v) CO2. For microscopy, cells were seeded on poly-L-lysine (Sigma)-coated slides. Transient plasmid transfections were performed using 25 kDa linear polyethylenimine (Polysciences). Plasmid (100 ng) encoding HA-Parkin-IRES-GFP, mito-mCherry or Parkin-mEGFP, or 500 ng plasmid encoding PGAM5-FLAG were used per 6-well. Total transfected DNA was 2 μg/well. For siRNA transfection, 2 × 10^5 cells were seeded per 6-well and on the next day transfected with 20 nM siRNA-oligonucleotide using lipofectamine RNAiMAX (ThermoFisher). Cells were analyzed 27 h post-transfection or five days post-siRNA-transfection. HEK293 T-REx PINK1 cells were induced with 0.3 μg/mL doxycycline for 24 h before further processing. […] For quantification, ImageJ was used (http://rsb.info.nih.gov/ij/). Immunoblots shown are representative of at least three independent experiments and were evaluated using Excel and GraphPad Prism 9 (GraphPad Software, Inc.).

SMILES strings stand for the structures. *1 amine or outer side, *2 acyl side, *3 side chain or, on linkers, in order; H or OH if unused. Where a SMILES comes first, the peptide text is derived from it. [ ]: non-standard residue; d: D form. The star is where a group is joined. NH(4-phenylbutyl) = c1ccc(CCCCN*)cc1; X1 = C[C@H](N[*:1])C(=O)C(=O)[*:2]

Turning to `CC(=O)N[C@@H](C)C(=O)N[C@H](C(=O)N[C@@H](Cc1ccccc1)C(=O)N[C@@H](CC(C)C)C(=O)N[C@@H](C)C(=O)C(=O)NCCCCc1ccccc1)C(C)C` [compound 5] (Ac-AVFL[X1]-{NH(4-phenylbutyl)}), the IC50 was 0.15 µM.
